The text below walks through data of patent US9580423B2, “Bicyclic heterocycles as FGFR4 inhibitors” (Incyte Corporation, priority 2015, dated 2017).

One test has as its target FGFR2 (Homo sapiens (Human), UniProt P21802). Briefly: FGFR Enzymatic Assay (FRET peptide phosphorylation), FGFR2.
The next test deals with FGFR3 (Homo sapiens (Human), UniProt P22607). Briefly: FGFR Enzymatic Assay (FRET peptide phosphorylation), FGFR3. Particulars: for pIC50: read-out: FGFR3 IC50; for IC50: FGFR3 IC50 (nM).
The target in another test is FGFR1 (Homo sapiens (Human), UniProt P11362). Briefly: FGFR Enzymatic Assay (FRET peptide phosphorylation), FGFR1. Particulars: read-out: FGFR1 IC50.
The target of the next test is FGFR4 (Homo sapiens (Human), UniProt P22455). Briefly: FGFR Enzymatic Assay (FRET peptide phosphorylation), FGFR4. Particulars: for FGFR1/FGFR4 IC50 ratio / FGFR2/FGFR4 IC50 ratio / FGFR3/FGFR4 IC50 ratio: IC50 ratio showing FGFR4 selectivity; for pIC50: read-out: FGFR4 IC50.
Where [1] appears, read: read-out: FGFR2 IC50, pre-incubated for 5 to 10 minutes.
The mark [2] stands for this setting: read-out: FGFR2 IC50, pre-incubated for 4 hours.
[3] abbreviates: pre-incubated for 5 to 10 minutes.

Molecules are shown by their SMILES. pIC50: −log10 of the molar value. Where two headings read alike, the source gives them in different places.

Chain of FGFR3 (P22607 23-806): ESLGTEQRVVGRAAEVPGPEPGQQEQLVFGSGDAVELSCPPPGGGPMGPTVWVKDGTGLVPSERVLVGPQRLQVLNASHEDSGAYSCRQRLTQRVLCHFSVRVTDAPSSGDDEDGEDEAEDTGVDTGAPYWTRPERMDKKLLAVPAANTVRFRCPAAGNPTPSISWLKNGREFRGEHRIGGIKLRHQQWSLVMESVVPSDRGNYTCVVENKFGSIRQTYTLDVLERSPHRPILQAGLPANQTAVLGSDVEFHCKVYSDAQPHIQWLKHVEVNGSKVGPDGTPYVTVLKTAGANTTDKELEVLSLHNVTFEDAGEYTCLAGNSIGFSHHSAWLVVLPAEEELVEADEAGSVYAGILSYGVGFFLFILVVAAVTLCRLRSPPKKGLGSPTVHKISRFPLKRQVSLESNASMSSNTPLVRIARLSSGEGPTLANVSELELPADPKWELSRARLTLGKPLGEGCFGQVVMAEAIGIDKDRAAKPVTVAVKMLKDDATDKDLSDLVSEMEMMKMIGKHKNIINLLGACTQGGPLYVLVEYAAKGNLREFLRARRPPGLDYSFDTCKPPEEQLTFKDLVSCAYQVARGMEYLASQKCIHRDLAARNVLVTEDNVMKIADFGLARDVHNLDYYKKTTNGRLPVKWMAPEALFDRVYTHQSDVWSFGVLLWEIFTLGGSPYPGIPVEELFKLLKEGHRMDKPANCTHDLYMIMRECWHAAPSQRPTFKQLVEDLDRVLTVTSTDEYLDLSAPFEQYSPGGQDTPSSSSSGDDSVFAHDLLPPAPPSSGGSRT
Chain of FGFR1 (P11362 22-822): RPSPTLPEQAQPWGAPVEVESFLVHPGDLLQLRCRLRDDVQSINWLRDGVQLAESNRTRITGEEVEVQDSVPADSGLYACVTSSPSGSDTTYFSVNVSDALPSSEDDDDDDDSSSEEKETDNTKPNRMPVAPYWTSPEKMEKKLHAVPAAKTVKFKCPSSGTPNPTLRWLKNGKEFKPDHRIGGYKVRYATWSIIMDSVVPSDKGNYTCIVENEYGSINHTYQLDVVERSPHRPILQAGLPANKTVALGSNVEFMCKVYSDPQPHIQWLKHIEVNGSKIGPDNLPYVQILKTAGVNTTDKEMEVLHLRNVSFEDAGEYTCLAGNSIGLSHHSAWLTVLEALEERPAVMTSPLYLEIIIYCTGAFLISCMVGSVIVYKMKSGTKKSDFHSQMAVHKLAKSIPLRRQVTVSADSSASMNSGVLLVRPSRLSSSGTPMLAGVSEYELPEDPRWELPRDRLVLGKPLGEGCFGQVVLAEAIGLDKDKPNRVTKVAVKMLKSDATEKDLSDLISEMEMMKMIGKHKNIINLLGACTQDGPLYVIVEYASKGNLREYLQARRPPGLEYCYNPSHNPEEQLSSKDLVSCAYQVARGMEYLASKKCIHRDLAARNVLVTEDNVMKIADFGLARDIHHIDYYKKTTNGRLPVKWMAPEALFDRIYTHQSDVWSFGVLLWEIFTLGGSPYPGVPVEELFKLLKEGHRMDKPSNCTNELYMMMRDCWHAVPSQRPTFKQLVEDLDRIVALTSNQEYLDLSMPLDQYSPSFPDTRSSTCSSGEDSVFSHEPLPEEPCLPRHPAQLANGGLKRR
Chain of FGFR4 (P22455 22-802): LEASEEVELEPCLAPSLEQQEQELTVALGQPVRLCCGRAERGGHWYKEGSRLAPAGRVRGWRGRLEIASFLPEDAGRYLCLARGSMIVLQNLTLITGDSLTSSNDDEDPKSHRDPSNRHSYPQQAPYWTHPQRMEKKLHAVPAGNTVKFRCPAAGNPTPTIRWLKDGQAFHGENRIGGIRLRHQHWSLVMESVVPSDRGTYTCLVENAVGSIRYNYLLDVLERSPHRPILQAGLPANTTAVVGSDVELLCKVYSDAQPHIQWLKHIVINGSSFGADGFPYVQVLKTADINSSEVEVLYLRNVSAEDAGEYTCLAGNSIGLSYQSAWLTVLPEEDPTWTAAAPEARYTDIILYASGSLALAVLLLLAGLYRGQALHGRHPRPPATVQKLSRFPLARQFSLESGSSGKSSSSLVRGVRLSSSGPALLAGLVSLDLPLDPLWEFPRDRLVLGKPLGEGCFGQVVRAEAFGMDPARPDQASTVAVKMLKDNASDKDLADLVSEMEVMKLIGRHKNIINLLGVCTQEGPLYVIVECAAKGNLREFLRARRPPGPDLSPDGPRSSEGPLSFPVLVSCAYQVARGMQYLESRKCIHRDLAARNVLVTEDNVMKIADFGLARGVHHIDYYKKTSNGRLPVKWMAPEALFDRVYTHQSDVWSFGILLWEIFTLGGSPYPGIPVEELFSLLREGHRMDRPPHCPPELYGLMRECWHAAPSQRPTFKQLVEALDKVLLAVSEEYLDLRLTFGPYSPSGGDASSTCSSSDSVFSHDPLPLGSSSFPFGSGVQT
Chain of FGFR2 (P21802 22-821): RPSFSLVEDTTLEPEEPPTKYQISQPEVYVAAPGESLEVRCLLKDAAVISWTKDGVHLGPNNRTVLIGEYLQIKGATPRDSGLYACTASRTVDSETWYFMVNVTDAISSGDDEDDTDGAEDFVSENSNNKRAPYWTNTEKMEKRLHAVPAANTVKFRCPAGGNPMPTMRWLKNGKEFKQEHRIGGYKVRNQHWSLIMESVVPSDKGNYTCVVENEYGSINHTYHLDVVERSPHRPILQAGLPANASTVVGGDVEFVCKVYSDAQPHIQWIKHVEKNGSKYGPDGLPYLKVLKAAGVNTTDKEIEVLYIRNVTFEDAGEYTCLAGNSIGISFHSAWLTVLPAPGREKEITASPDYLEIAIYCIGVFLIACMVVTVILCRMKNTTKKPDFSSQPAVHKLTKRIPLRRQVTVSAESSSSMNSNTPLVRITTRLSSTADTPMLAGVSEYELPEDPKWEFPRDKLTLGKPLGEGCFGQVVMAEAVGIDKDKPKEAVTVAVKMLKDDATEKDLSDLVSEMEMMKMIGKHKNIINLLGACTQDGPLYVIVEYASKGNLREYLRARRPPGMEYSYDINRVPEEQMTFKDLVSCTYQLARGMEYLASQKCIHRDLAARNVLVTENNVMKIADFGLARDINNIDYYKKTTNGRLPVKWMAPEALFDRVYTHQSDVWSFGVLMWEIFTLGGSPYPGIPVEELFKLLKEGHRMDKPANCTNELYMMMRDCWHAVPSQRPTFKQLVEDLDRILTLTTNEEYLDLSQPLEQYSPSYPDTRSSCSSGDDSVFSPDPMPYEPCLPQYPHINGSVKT
Excerpt for FGFR1: (§1) The enzymes were purchased from Millipore or Invitrogen.
(§2) GraphPad prism3 was used to analyze the data. The IC50 values were derived by fitting the data to the equation for a sigmoidal dose-response with a variable slope. Y=Bottom+(Top-Bottom)/(1+10^((LogIC50−X)*HillSlope)) where X is the logarithm of concentration and Y is the response.
Excerpt for FGFR2: as §1, §2
Excerpt for FGFR3: as §1, §2
Excerpt for FGFR4: as §1, §2

As for `C=CC(=O)Nc1ccc(C#N)c(-c2cc3c(cn2)CN(c2c(F)c(OC)cc(OC)c2F)C(=O)C32CC2)c1` [Example 5, N-(4-cyano-3-(2′-(2,6-difluoro-3,5-dimethoxyphenyl)-3′-oxo-2′,3′-dihydro-1′H-spiro[cyclopropane-1,4′-[2,7]naphthyridine]-6′-yl)phenyl)acrylamide], the pIC50 on FGFR2 (setting [1]), on FGFR2 (setting [2]), on FGFR3 (setting [3]), at FGFR3 (pre-incubated for 4 hours), at FGFR1 (setting [3]) and at FGFR1 (pre-incubated for 4 hours) was less than 6.70 in each case. Further, the pIC50 on FGFR4 (setting [3]) and at FGFR4 (pre-incubated for 4 hours) was more than 8.00 throughout. The “FGFR1/FGFR4 IC50 ratio” value at FGFR4 (setting [3]) and on FGFR4 (pre-incubated for 4 hours) was more than 100 each time. For the same compound, the “FGFR2/FGFR4 IC50 ratio” value on FGFR4 (setting [3]) and at FGFR4 (pre-incubated for 4 hours) was more than 100 throughout. In addition, the “FGFR3/FGFR4 IC50 ratio” value on FGFR4 (setting [3]) and at FGFR4 (pre-incubated for 4 hours) was more than 100 throughout.
Consider `C=CC(=O)Nc1cc(-c2cc3c(cn2)CN(c2c(F)c(OC)cc(OC)c2F)C(=O)C32CC2)ccc1CN1CCOCC1` [Example 12, N-(5-(2′-(2,6-difluoro-3,5-dimethoxyphenyl)-3′-oxo-2′,3′-dihydro-1′H-spiro[cyclopropane-1,4′-[2,7]naphthyridine]-6′-yl)-2-(morpholinomethyl)phenyl)acrylamide], for which the pIC50 (as a rule, −log10 of the IC50, conventionally taken in molar units) against FGFR2 was 6.70 to 7.52; on FGFR2 (setting [1]), 6.70 to 7.52; at FGFR1 (setting [3]) it was less than 6.70; on FGFR1 (pre-incubated for 4 hours), less than 6.70; on FGFR4 (setting [3]) it was more than 8.00; on FGFR4 (pre-incubated for 4 hours), more than 8.00. Also, the IC50 (as a rule, the concentration needed to halve the response being measured) lay within 30 to 200 nM at FGFR3 (setting [3]) and 10 to 30 nM against FGFR3 (pre-incubated for 4 hours). Also, the figures for the “FGFR1/FGFR4 IC50 ratio” value at FGFR4 (setting [3]) and at FGFR4 (pre-incubated for 4 hours) were more than 10 and more than 100, respectively. For the same compound, the “FGFR2/FGFR4 IC50 ratio” value at FGFR4 (setting [3]) was more than 1; on FGFR4 (pre-incubated for 4 hours), more than 25. In addition, the “FGFR3/FGFR4 IC50 ratio” value at FGFR4 (setting [3]) is more than 1; at FGFR4 (pre-incubated for 4 hours), more than 10.
Consider `C=CC(=O)Nc1cn[nH]c1-c1cc2c(cn1)CN(c1c(F)c(OC)cc(OC)c1F)C(=O)C21CC1` [Example 14, N-(5-(2′-(2,6-difluoro-3,5-dimethoxyphenyl)-3′-oxo-2′,3′-dihydro-1′H-spiro[cyclopropane-1,4′-[2,7]naphthyridine]-6′-yl)-1H-pyrazol-4-yl)acrylamide], for which the negative logarithm of the IC50 (pIC50) at FGFR2 (setting [2]) was less than 6.70. The pIC50 at FGFR3 (pre-incubated for 4 hours) is less than 6.70. Besides, at FGFR1 (pre-incubated for 4 hours), the pIC50 was less than 6.70. Besides, at FGFR4 (pre-incubated for 4 hours), the “FGFR1/FGFR4 IC50 ratio” value is given as more than 100, the “FGFR2/FGFR4 IC50 ratio” value is reported as more than 100, the “FGFR3/FGFR4 IC50 ratio” value was more than 100 and the pIC50 was more than 8.00.
Consider `C=CC(=O)Nc1cnn(Cc2cnn(C)c2)c1-c1cc2c(cn1)CN(c1c(F)c(OC)cc(OC)c1F)C(=O)C21CC1` [Example 27, N-(5-(2′-(2,6-difluoro-3,5-dimethoxyphenyl)-3′-oxo-2′,3′-dihydro-1′H-spiro[cyclopropane-1,4′-[2,7]naphthyridine]-6′-yl)-1-((1-methyl-1H-pyrazol-4-yl)methyl)-1H-pyrazol-4-yl)acrylamide], for which the pIC50 at FGFR2 (setting [2]) was less than 6.70. Further, the pIC50 on FGFR3 (pre-incubated for 4 hours) is less than 6.70. Besides, the pIC50 at FGFR1 (pre-incubated for 4 hours) is less than 6.70. Further, on FGFR4 (pre-incubated for 4 hours), the “FGFR1/FGFR4 IC50 ratio” value is more than 100, the “FGFR2/FGFR4 IC50 ratio” value is recorded as more than 100, the “FGFR3/FGFR4 IC50 ratio” value is reported as more than 100 and the pIC50 is more than 8.00.
With `C=CC(=O)Nc1cnn(CCOC)c1-c1cc2c(cn1)CN(c1c(F)c(OC)cc(OC)c1F)C(=O)C21CC1` [Example 15, N-(5-(2′-(2,6-difluoro-3,5-dimethoxyphenyl)-3′-oxo-2′,3′-dihydro-1′H-spiro[cyclopropane-1,4′-[2,7]naphthyridine]-6′-yl)-1-(2-methoxyethyl)-1H-pyrazol-4-yl)acrylamide], on FGFR2 (setting [2]), the negative-log IC50 (pIC50) was less than 6.70. In addition, on FGFR3 (pre-incubated for 4 hours), the negative logarithm of the IC50 (pIC50) was less than 6.70. Also, the pIC50 on FGFR1 (pre-incubated for 4 hours) is less than 6.70. Also, on FGFR4 (pre-incubated for 4 hours), the “FGFR1/FGFR4 IC50 ratio” value is reported as more than 100, the “FGFR2/FGFR4 IC50 ratio” value is recorded as more than 100, the “FGFR3/FGFR4 IC50 ratio” value is listed as more than 100 and the pIC50 is more than 8.00.
